Reference: US12492173B2, “Herbicidal substituted N-tetrazolyl aryl carboxamides” (Bayer Aktiengesellschaft, priority 2019, dated 2025)

Experiments:
Format in all cases: in vivo
[1] = system: Lolium rigidum; assay: Pre-emergence herbicidal action, LOLRI; settings: dosage 320 g/ha, scored visually after 3 weeks vs untreated controls (100% = plants have died)
Text: 1. Pre-Emergence Herbicidal Action Against Harmful Plants Seeds of monocotyledonous and dicotyledonous weed plants and crop plants are laid out in sandy loam soil in wood-fiber pots and covered with soil. The compounds of the invention, formulated in the form of wettable powders (WP) or as emulsion concentrates (EC), are then applied to the surface of the covering soil in the form of an aqueous suspension or emulsion at a water application rate equating to 600 to 800 l/ha, with addition of 0.2% wetting agent. After the treatment, the pots are placed in a greenhouse and kept under good growth conditions for the trial plants. The damage to the test plants is scored visually after a test period of 3 weeks by comparison with untreated controls (herbicidal activity in percent (%): 100% activity=the plants have died, 0% activity=like control plants). […] The tables below illustrate, in an exemplary manner, the […] herbicidal action of the compounds according to the invention, the herbicidal activity being stated in percent. [table] In the experiments that follow, herbicidal action of numerous inventive compounds and the known compounds that are structurally closest from D1 (WO 2012/028579 A1) and D2 (WO 2018/202535 A1) were compared under the above-specified conditions by the pre-emergence and post-emergence method. The example numbers given in the tables relate to the compounds disclosed in the respective documents. In addition to the compounds disclosed in D1 and D2, the following compounds V-1 to V-14 that are encompassed by D1 or D2 but are not compounds specified therein were used in the comparative experiments: • V-1: 2-(methylsulfanyl)-3-(methylsulfinyl)-N-(1-methyl-1H-tetrazol-5-yl)-4-(trifluoromethyl)benzamide • V-2: 2-(methylsulfanyl)-3-(methylsulfonyl)-N-(1-methyl-1H-tetrazol-5-yl)-4-(trifluoromethyl)benzamide • V-3: 2,3-bis(ethylsulfanyl)-N-(1-methyl-1H-tetrazol-5-yl)-4-(trifluoromethyl)benzamide • V-4: 2-chloro-3-(ethylsulfanyl)-N-(1-methyl-1H-tetrazol-5-yl)-4-(trifluoromethyl)benzamide • V-5: 2-chloro-4-iodo-3-(methylsulfanyl)-N-(1-methyl-1H-tetrazol-5-yl)benzamide • V-6: 2-chloro-4-iodo-3-(methylsulfinyl)-N-(1-methyl-1H-tetrazol-5-yl)benzamide • V-7: 2-chloro-4-iodo-3-(methylsulfonyl)-N-(1-methyl-1H-tetrazol-5-yl)benzamide • V-8: 2-bromo-3-(methylsulfanyl)-N-(1-methyl-1H-tetrazol-5-yl)-4-(trifluoromethyl)benzamide • V-9: 2-bromo-3-(methylsulfinyl)-N-(1-methyl-1H-tetrazol-5-yl)-4-(trifluoromethyl)benzamide • V-10: 2-bromo-3-(methylsulfonyl)-N-(1-methyl-1H-tetrazol-5-yl)-4-(trifluoromethyl)benzamide • V-11: 2-bromo-3-(ethylsulfanyl)-N-(1-methyl-1H-tetrazol-5-yl)-4-(trifluoromethyl)benzamide • V-12: 2-bromo-3-(ethylsulfinyl)-N-(1-methyl-1H-tetrazol-5-yl)-4-(trifluoromethyl)benzamide • V-13: 2-bromo-3-(ethylsulfonyl)-N-(1-methyl-1-1H-tetrazol-5-yl)-4-(trifluoromethyl)benzamide • V-14: 2-cyclopropyl-3-(ethylsulfanyl)-N-(1-methyl-1H-tetrazol-5-yl)-4-(trifluoromethyl)benzamide Herbicidal Pre-Emergence Action: […]

[2] = system: Polygonum convolvulus; assay: Pre-emergence herbicidal action, POLCO; settings: dosage 320 g/ha, scored visually after 3 weeks vs untreated controls (100% = plants have died)
Outline: (§1)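 Sown pots (sandy loam) sprayed pre-emergence → greenhouse → visual rating at 3 weeks; % activity vs untreated control, 100% = dead.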

[3] = system: Stellaria media; assay: Pre-emergence herbicidal action, STEME; settings: dosage 320 g/ha, scored visually after 3 weeks vs untreated controls (100% = plants have died)
Outline: as §1

[4] = system: Cyperus esculentus; assay: Post-emergence herbicidal action, CYPES; set-up: key: % herbicidal action vs untreated; 100 = plants died, 0 = like control; settings: Dosage 80 g/ha
Outline: (§2)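 One-leaf-stage weeds, raised from seed in greenhouse sandy loam, received a single foliar spray of compound as wettable powder or emulsion concentrate with 0.2% wetting agent added. Growth continued under optimal conditions for about 3 weeks before percent damage was scored by eye against controls.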

[5] = system: Stellaria media; assay: Post-emergence herbicidal action, STEME; set-up: key: % herbicidal action vs untreated; 100 = plants died, 0 = like control; settings: Dosage 80 g/ha
Outline: as §2

[6] = system: Viola tricolor; assay: Post-emergence herbicidal action, VIOTR; set-up: key: % herbicidal action vs untreated; 100 = plants died, 0 = like control; settings: Dosage 80 g/ha
Outline: as §2

In the case of `CCCn1nnnc1NC(=O)c1ccc(C(F)F)c(CS(=O)(=O)CC)c1Cl` [Example 3-325], the “herbicidal activity LOLRI” value [1] is reported as 100%, the “herbicidal activity POLCO” value [2] is reported as 100% and the “herbicidal activity STEME” value [3] is reported as 100%. The “herbicidal action CYPES” value [4] was 90, the “herbicidal action STEME” value [5] was 100 and the “herbicidal action VIOTR” value [6] was 100.
